PubChem BioAssay (NCI)
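Five concentrations, 48 hours, 96-well plates. At the TGI there is no net growth.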

Legend:
Experiment in all cases: NCI anticancer screen, dose series, 48 h
[1] = tested on: 786-0 renal
[2] = tested on: HCC-2998 colon
[3] = tested on: HOP-92 NSCLC
[4] = tested on: HS 578T breast
[5] = tested on: MALME-3M melanoma
[6] = tested on: MDA-MB-435
[7] = tested on: NCI/ADR-RES ovarian
[8] = tested on: OVCAR-3 ovarian
[9] = tested on: OVCAR-4 ovarian
[10] = tested on: OVCAR-8 ovarian

Measured: TGI

COc1ccccc1CN=C1Nc2ccncc2S(=O)(=O)N1c1ccccc1
> 100 µM: all assays above
